Experimental data taken from patent publication US9365584B2, “Thieno [2,3-B] pyridinedione activators of AMPK and therapeutic uses thereof” (Poxel, priority 2009, dated 2016).

System: AMPK
Experiment: AMPK enzyme activity assay (Delfia technology, AMARA peptide substrate)
Assay type: biochemical
Conditions: compound at 30 μM vs AMP at 200 μM
Procedure: The following biological test allows the determination of the efficacy of compounds of formula (1) onto AMPK protein.
AMPK enzyme activities were assayed by using a Delfia technology. AMPK enzyme activities were carried out in microtiter plates in the presence of a synthetic peptide substrate (AMARAASAAALARRR, the “AMARA” peptide) and activators in serial dilutions. Reactions were initiated by the addition of AMPK. Enzyme activity was assayed by using an anti-phosphoserine antibody to measure the quantity of phosphate incorporated into the AMARAA.
No: Number of the molecule
Activity: Ratio between the % of control (basal activity) of compound of formula (1) at 30 μM and the % of control (basal activity) of AMP (natural substrate) at 200 μM.

Row | Structure (SMILES) | Activity: Ratio between the % of control (basal activity) of compound of formula (1) at 30 μM and the % of control (basal activity) of AMP (natural substrate) at 200 μM | Activity: Ratio between the % of control (basal activity) of compound of formula (1) at 30 μM and the % of control (basal activity) of AMP (natural substrate) at 200 μM (listed as 2)
1 | Cc1cccc(C2(C)C(=O)Nc3sc(Cl)c(-c4ccccc4)c3C2=O)c1 (centres unmarked) [No 33, 2-chloro-5-methyl-5-(m-tolyl)-3-phenyl-7H-thieno[2,3-b]pyridine-4,6-dione] | A (0%<A<50%) | 
2 | Cc1ccc(-c2c(Cl)sc3c2C(=O)C(C)(c2ccccc2)C(=O)N3)cc1 (centres unmarked) [No 34, 2-chloro-5-methyl-5-phenyl-3-(p-tolyl)-7H-thieno[2,3-b]pyridine-4,6-dione] | A (0%<A<50%) | 
3 | COc1ccc(C2(C)C(=O)Nc3sc(Cl)c(-c4ccccc4)c3C2=O)cc1 (centres unmarked) [No 35, 2-chloro-5-(4-methoxyphenyl)-5-methyl-3-phenyl-7H-thieno[2,3-b]pyridine-4,6-dione] | A (0%<A<50%) | 
4 | COc1ccc(-c2c(Cl)sc3c2C(=O)C(C)(c2ccccc2)C(=O)N3)cc1 (centres unmarked) [No 36, 2-chloro-3-(4-methoxyphenyl)-5-methyl-5-phenyl-7H-thieno[2,3-b]pyridine-4,6-dione] | A (0%<A<50%) | 
5 | CC1(c2ccc(F)cc2)C(=O)Nc2sc(Cl)c(-c3cccc(F)c3)c2C1=O (centres unmarked) [No 37, 2-chloro-3-(3-fluorophenyl)-5-(4-fluorophenyl)-5-methyl-7H-thieno[2,3-b]pyridine-4,6-dione] | A (0%<A<50%) | 
6 | COc1cccc(C2(C)C(=O)Nc3sc(Cl)c(-c4ccccc4)c3C2=O)c1 (centres unmarked) [No 38, 2-chloro-5-(3-methoxyphenyl)-5-methyl-3-phenyl-7H-thieno[2,3-b]pyridine-4,6-dione] | A (0%<A<50%) | 
7 | COc1ccc(-c2c(Cl)sc3c2C(=O)C(C)(c2ccc(F)cc2)C(=O)N3)cc1 (centres unmarked) [No 39, 2-chloro-5-(4-fluorophenyl)-3-(4-methoxyphenyl)-5-methyl-7H-thieno[2,3-b]pyridine-4,6-dione] | A (0%<A<50%) | 
8 | COc1cccc(-c2c(Cl)sc3c2C(=O)C(C)(c2ccccc2)C(=O)N3)c1 (centres unmarked) [No 40, 2-chloro-3-(3-methoxyphenyl)-5-methyl-5-phenyl-7H-thieno[2,3-b]pyridine-4,6-dione] | A (0%<A<50%) | 
9 | COc1cccc(-c2c(Cl)sc3c2C(=O)C(C)(c2ccc(C)cc2)C(=O)N3)c1 (centres unmarked) [No 41, 2-chloro-3-(3-methoxyphenyl)-5-methyl-5-(p-tolyl)-7H-thieno[2,3-b]pyridine-4,6-dione] | A (0%<A<50%) | 
10 | COc1cccc(-c2c(Cl)sc3c2C(=O)C(C)(c2ccc(F)cc2)C(=O)N3)c1 (centres unmarked) [No 42, 2-chloro-5-(4-fluorophenyl)-3-(3-methoxyphenyl)-5-methyl-7H-thieno[2,3-b]pyridine-4,6-dione] | A (0%<A<50%) | 
11 | COc1ccc(C2(C)C(=O)Nc3sc(Cl)c(-c4cccc(OC)c4)c3C2=O)cc1 (centres unmarked) [No 43, 2-chloro-3-(3-methoxyphenyl)-5-(4-methoxyphenyl)-5-methyl-7H-thieno[2,3-b]pyridine-4,6-dione] | A (0%<A<50%) | 
12 | COc1cccc(-c2c(Cl)sc3c2C(=O)C(C)(c2cccc(C)c2)C(=O)N3)c1 (centres unmarked) [No 44, 2-chloro-3-(3-methoxyphenyl)-5-methyl-5-(m-tolyl)-7H-thieno[2,3-b]pyridine-4,6-dione] | A (0%<A<50%) | 
13 | Cc1ccc(-c2c(Cl)sc3c2C(=O)C(C)(c2cccc(F)c2)C(=O)N3)cc1 (centres unmarked) [No 45, 2-chloro-5-(3-fluorophenyl)-5-methyl-3-(p-tolyl)-7H-thieno[2,3-b]pyridine-4,6-dione] | A (0%<A<50%) | 
14 | O=C1Nc2sc(Cl)c(-c3ccc(F)cc3O)c2C(=O)C1(F)c1ccccc1 (centres unmarked) [No 46, 2-chloro-5-fluoro-3-(4-fluoro-2-hydroxy-phenyl)-5-phenyl-7H-thieno[2,3-b]pyridine-4,6-dione] | B (50%≦B<75%) | 
15 | Cc1ccccc1-c1c(Cl)sc2c1C(=O)C(C)(c1ccccc1F)C(=O)N2 (centres unmarked) [No 47, 2-chloro-5-(2-fluorophenyl)-5-methyl-3-(o-tolyl)-7H-thieno[2,3-b]pyridine-4,6-dione] | A (0%<A<50%) | 
16 | COC1(c2ccccc2)C(=O)Nc2sc(Cl)c(-c3ccccc3)c2C1=O (centres unmarked) [No 48, 2-chloro-5-methoxy-3,5-diphenyl-7H-thieno[2,3-b]pyridine-4,6-dione] | A (0%<A<50%) | B (50%≦B<75%)
17 | CC1(c2ccc(F)cc2)C(=O)Nc2sc(Cl)c(-c3ccc(F)cc3)c2C1=O (centres unmarked) [No 49, 2-chloro-3,5-bis(4-fluorophenyl)-5-methyl-7H-thieno[2,3-b]pyridine-4,6-dione] | A (0%<A<50%) | 
18 | Cc1ccc(C2(C)C(=O)Nc3sc(Cl)c(-c4ccc(F)cc4)c3C2=O)cc1 (centres unmarked) [No 50, 2-chloro-3-(4-fluorophenyl)-5-methyl-5-(p-tolyl)-7H-thieno[2,3-b]pyridine-4,6-dione] | A (0%<A<50%) | 
19 | CC1(c2cccc(F)c2)C(=O)Nc2sc(Cl)c(-c3ccc(F)cc3)c2C1=O (centres unmarked) [No 51, 2-chloro-5-(3-fluorophenyl)-3-(4-fluorophenyl)-5-methyl-7H-thieno[2,3-b]pyridine-4,6-dione] | A (0%<A<50%) | 
20 | COc1ccccc1-c1c(Cl)sc2c1C(=O)C(C)(c1ccc(F)cc1)C(=O)N2 (centres unmarked) [No 52, 2-chloro-5-(4-fluorophenyl)-3-(2-methoxyphenyl)-5-methyl-7H-thieno[2,3-b]pyridine-4,6-dione] | A (0%<A<50%) | 
21 | COc1ccc(C2(C)C(=O)Nc3sc(Cl)c(-c4ccc(F)cc4)c3C2=O)cc1 (centres unmarked) [No 53, 2-chloro-3-(4-fluorophenyl)-5-(4-methoxyphenyl)-5-methyl-7H-thieno[2,3-b]pyridine-4,6-dione] | A (0%<A<50%) | 
22 | CC1(c2ccc(S(C)(=O)=O)cc2)C(=O)Nc2sc(Cl)c(-c3ccc(F)cc3)c2C1=O (centres unmarked) [No 54, 2-chloro-3-(4-fluorophenyl)-5-methyl-5-(4-methyl-sulfonylphenyl)-7H-thieno[2,3-b]pyridine-4,6-dione] | A (0%<A<50%) | 
23 | CC1(c2ccccc2F)C(=O)Nc2sc(Cl)c(-c3ccc(F)cc3)c2C1=O (centres unmarked) [No 55, 2-chloro-5-(2-fluorophenyl)-3-(4-fluorophenyl)-5-methyl-7H-thieno[2,3-b]pyridine-4,6-dione] | B (50%≦B<75%) | 
24 | COc1ccccc1-c1c(Cl)sc2c1C(=O)C(C)(c1cccc(C)c1)C(=O)N2 (centres unmarked) [No 56, 2-chloro-3-(2-methoxyphenyl)-5-methyl-5-(m-tolyl)-7H-thieno[2,3-b]pyridine-4,6-dione] | A (0%<A<50%) | 
25 | Cc1ccc(-c2c(Cl)sc3c2C(=O)C(C)(c2ccc(F)cc2)C(=O)N3)cc1 (centres unmarked) [No 57, 2-chloro-5-(4-fluorophenyl)-5-methyl-3-(p-tolyl)-7H-thieno[2,3-b]pyridine-4,6-dione] | B (50%≦B<75%) | 
26 | COc1cccc(C2(C)C(=O)Nc3sc(Cl)c(-c4ccccc4C)c3C2=O)c1 (centres unmarked) [No 58, 2-chloro-5-(3-methoxyphenyl)-5-methyl-3-(o-tolyl)-7H-thieno[2,3-b]pyridine-4,6-dione] | C (C≧75%) | 
27 | Cc1cccc(C2(C)C(=O)Nc3sc(Cl)c(-c4ccccc4C)c3C2=O)c1 (centres unmarked) [No 59, 2-chloro-5-methyl-5-(m-tolyl)-3-(o-tolyl)-7H-thieno[2,3-b]pyridine-4,6-dione] | C (C≧75%) | 
28 | Cc1ccc(C2(C)C(=O)Nc3sc(Cl)c(-c4cccc(F)c4)c3C2=O)cc1 (centres unmarked) [No 60, 2-chloro-3-(3-fluorophenyl)-5-methyl-5-(p-tolyl)-7H-thieno[2,3-b]pyridine-4,6-dione] | C (C≧75%) | 
